Assay results: patent US12240857B2 (priority 2017, dated 2025)
Where “and” joins values, the source holds several entries; their conditions need not be identical. Equal entries are not always repeated. Where two headings read alike, the source gives them in different places.

Tests used:
in vitro [1] = conditions: human, microsomes
[2] = system: EBOV mucin-domain-deleted glycoprotein pseudotyped VSV; experiment: microbe, parasite or virus in culture; type: cell-based, Zaire ebolavirus; conditions: Zaire ebolavirus, Vero
[3] = system: full-length Ebola Zaire GP pseudotyped VSV (EBOV_FL); experiment: microbe, parasite or virus in culture; type: cell-based; conditions: Zaire ebolavirus, read-out: EC50 Pseudotype Assays EBOV_FL
EBOV (Mayinga) [4] = experiment: microbe, parasite or virus in culture; type: cell-based, Zaire ebolavirus
wild-type Sudan Gulu [5] = experiment: microbe, parasite or virus in culture; conditions: Sudan ebolavirus, HeLa, read-out: Sudan Gulu EC50
[6] = system: full-length LASV glycoprotein pseudotyped VSV; experiment: microbe, parasite or virus in culture; type: cell-based, Lassa virus; conditions: Vesicular stomatitis virus, read-out: EC50 Pseudotype Assays LASV
[7] = system: parent VSV virus expressing the native VSV glycoprotein; experiment: microbe, parasite or virus in culture; type: cell-based; conditions: Vesicular stomatitis virus, Vero, read-out: EC50 Pseudotype Assays VSV
[8] = system: full-length Marburgvirus (MARV) GP pseudotyped VSV; experiment: microbe, parasite or virus in culture; type: cell-based, Marburg marburgvirus; conditions: Orthomarburgvirus, read-out: EC50 Pseudotype Assays MARV
wild-type Ebola Zaire [9] = experiment: microbe, parasite or virus in culture; conditions: Zaire ebolavirus, HeLa, read-out: Ebola Zaire EC50
wild-type Sudan Gulu [10] = system: wild-type Sudan Gulu
physchem = conditions: pH 7, aqueous buffer, kinetic from dmso stock
[11] = system: full-length SUDV GP pseudotyped VSV; experiment: microbe, parasite or virus in culture; type: cell-based, Sudan ebolavirus; conditions: Vesicular stomatitis virus, read-out: EC50 Pseudotype Assays SUDV
in vivo = conditions: male, CD-1, mouse
[12] = system: BDBV mucin-domain-deleted glycoprotein pseudotyped VSV; experiment: microbe, parasite or virus in culture; type: cell-based, Bundibugyo ebolavirus; conditions: Vesicular stomatitis virus, Vero
P-gp = P-gp (Homo sapiens, UniProt P08183)
human Cyp-p450 3A4 = human Cyp-p450 3A4 (Homo sapiens, UniProt P08684); experiment: biochemical
[13] = in vivo
EBOV (Mayinga) [14] = experiment: microbe, parasite or virus in culture; type: cell-based, Zaire ebolavirus; remark: listed apart in the source
[15] = system: human Cyp-p450 enzymes 1A2, 2B6, 2C9, 2C19, 2D6
in vitro [16] = conditions: African green monkey, Cytotox CC50
wild-type Ebola Zaire [17] = system: wild-type Ebola Zaire
in vitro [18] = conditions: human
in vitro [19] = conditions: mouse, microsomes
in vitro [20] = conditions: human, Caco-2
in vitro [21] = conditions: mouse
in vitro [22] = conditions: monkey, microsomes
[23] = system: CYP1A2, CYP2B6, CYP2C9, CYP2C19, CYP2D6; experiment: in vitro; conditions: human
hERG ion channel = hERG ion channel (Homo sapiens, UniProt Q12809); experiment: biochemical
Chain of hERG ion channel (Q12809 whole entry): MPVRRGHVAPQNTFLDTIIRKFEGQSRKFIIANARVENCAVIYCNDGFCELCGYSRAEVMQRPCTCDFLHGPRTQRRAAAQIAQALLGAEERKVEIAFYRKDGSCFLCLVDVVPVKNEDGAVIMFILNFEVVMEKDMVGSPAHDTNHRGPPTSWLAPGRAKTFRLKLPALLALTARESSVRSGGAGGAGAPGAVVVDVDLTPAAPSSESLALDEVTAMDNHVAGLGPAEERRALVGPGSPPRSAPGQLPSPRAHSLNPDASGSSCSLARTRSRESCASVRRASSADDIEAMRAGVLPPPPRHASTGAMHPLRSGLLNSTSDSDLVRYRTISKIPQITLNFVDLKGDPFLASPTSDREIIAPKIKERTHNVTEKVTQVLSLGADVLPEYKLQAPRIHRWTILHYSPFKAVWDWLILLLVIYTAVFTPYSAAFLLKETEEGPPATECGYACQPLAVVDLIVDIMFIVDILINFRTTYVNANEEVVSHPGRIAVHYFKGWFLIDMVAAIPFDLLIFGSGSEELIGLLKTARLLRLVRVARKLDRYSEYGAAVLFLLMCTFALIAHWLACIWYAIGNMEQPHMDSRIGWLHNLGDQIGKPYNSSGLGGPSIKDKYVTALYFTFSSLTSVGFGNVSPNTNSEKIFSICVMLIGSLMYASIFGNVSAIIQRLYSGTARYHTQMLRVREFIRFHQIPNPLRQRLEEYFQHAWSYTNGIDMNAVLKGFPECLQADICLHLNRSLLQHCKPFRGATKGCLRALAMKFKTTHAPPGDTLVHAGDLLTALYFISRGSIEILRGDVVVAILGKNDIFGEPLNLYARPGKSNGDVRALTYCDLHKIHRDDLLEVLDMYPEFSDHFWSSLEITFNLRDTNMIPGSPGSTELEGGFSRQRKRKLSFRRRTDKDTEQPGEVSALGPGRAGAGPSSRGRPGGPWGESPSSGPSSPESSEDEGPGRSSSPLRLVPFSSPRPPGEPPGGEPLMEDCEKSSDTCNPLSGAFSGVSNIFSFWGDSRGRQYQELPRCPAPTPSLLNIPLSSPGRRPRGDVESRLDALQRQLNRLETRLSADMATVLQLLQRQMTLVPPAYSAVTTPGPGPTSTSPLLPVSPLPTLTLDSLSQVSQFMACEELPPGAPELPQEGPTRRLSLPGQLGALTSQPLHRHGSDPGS

Chain of human Cyp-p450 3A4 (P08684 whole entry): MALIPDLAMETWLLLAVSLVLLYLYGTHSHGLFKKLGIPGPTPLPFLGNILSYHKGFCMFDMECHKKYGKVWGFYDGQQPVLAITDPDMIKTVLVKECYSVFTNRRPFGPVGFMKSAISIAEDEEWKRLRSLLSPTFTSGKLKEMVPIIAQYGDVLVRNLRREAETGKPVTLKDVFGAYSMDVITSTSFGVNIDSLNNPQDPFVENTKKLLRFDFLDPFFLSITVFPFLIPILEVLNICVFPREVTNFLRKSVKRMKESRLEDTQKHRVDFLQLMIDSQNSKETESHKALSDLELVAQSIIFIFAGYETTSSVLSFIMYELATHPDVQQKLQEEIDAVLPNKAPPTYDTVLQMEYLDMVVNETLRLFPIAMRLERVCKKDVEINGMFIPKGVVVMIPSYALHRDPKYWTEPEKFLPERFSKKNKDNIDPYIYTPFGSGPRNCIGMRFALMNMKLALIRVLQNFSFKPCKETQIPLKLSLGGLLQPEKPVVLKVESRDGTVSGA
Chain of P-gp (P08183 whole entry): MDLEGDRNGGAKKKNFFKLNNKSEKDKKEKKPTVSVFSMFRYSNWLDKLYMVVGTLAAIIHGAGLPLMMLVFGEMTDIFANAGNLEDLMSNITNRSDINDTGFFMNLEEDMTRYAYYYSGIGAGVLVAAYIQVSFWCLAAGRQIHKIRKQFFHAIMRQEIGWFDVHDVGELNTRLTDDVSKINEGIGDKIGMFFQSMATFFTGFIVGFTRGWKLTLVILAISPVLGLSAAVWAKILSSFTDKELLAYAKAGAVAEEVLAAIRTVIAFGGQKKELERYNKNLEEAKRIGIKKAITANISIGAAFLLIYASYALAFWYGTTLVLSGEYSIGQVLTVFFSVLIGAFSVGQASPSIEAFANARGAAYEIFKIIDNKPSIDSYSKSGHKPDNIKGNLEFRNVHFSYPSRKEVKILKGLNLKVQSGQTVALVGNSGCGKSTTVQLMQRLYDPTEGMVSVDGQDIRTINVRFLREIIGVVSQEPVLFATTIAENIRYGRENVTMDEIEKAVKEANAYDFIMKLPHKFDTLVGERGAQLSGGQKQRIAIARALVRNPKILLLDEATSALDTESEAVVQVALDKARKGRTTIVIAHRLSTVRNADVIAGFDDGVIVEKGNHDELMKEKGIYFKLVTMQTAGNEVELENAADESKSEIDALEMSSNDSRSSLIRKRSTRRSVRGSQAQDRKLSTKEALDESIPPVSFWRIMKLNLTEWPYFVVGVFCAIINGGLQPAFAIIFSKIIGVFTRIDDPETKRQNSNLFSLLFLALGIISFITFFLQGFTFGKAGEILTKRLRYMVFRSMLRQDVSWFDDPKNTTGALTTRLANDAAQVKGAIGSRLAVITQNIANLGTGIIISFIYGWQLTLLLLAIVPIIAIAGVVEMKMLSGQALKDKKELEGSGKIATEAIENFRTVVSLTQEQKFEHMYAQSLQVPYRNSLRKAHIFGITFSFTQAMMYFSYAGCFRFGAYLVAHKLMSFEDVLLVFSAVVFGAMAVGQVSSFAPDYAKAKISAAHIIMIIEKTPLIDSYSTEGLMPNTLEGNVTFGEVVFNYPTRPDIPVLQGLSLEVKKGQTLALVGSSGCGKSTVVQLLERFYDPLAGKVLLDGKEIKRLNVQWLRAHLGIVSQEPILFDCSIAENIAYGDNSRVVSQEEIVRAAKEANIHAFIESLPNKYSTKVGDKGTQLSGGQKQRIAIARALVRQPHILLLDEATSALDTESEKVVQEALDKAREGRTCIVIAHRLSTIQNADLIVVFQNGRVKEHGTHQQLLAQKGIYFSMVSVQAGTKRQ

In the case of `CC12CC3CC(C(=O)N[C@H]4CC[C@H](N)CC4)(C1)CC(c1ccccc1)(C3)C2.Cl` (stereo partly shown) [Example A78], the half-life (in vitro [1]) is reported as 7.7 h, the EC50 ([2]; read-out: EC50 EBOV) is reported as 20 nM and the EC50 ([2]; read-out: EC50 Pseudotype Assays EBOV) is reported as 20 nM. For the same compound, the EC50 [3] was 50 nM, the “SI50 (CC50/EC50)” value (EBOV (Mayinga) [4]) was 41.5 and the EC50 (EBOV (Mayinga) [4]; Zaire ebolavirus, Vero) was 1100 nM. The EC50 (wild-type Sudan Gulu [5]) was 210 nM, the EC50 [6] was > 10000 nM and the EC50 [7] was > 10000 nM. For the same compound, the EC50 [8] was 3500 nM, the EC50 (wild-type Ebola Zaire [9]) was 210 nM and the “Sudan Gulu SI (CC50/EC50)” value (wild-type Sudan Gulu [10]) was 264.3. For the same compound, the solubility (physchem) was > 500 µM, the EC50 [11] was 210 nM and the Vd (in vivo) was 14 L/kg. It also gave a half-life (in vivo) of 7.1 h, a half-life (in vivo; 10 mg/kg) of 7 h and an AUC(0-inf) (in vivo; iv, 1 mg/kg) of 561 ng·h/mL. It also gave an AUC(0-t) (in vivo; iv, 1 mg/kg) of 539 ± 23 ng·h/mL, a Cmax (in vivo; iv, 1 mg/kg) of 129 ± 40 ng/mL and a Tmax (in vivo; iv, 1 mg/kg) of 0.083 h. It also gave a Vd (in vivo; iv, 1 mg/kg) of 13.9 L/kg, a half-life (in vivo; iv, 1 mg/kg) of 5.4 h and an AUC(0-inf) (in vivo; po, 10 mg/kg) of 4040 ng·h/mL. It also gave an AUC(0-t) (in vivo; po, 10 mg/kg) of 3590 ± 576 ng·h/mL, a Cmax (in vivo; po, 10 mg/kg) of 239 ± 46 ng/mL and a Tmax (in vivo; po, 10 mg/kg) of 6 h. The bioavailability (in vivo; po, 10 mg/kg) was 72%, the half-life (in vivo; po, 10 mg/kg) was 7.1 h and the EC50 ([12]; read-out: EC50 BDBV) was 90 nM. For the same compound, the EC50 ([12]; read-out: EC50 Pseudotype Assays BDBV) was 90 nM, the “P-gp substrate ID Caco-2 Permeability (+Verapamil) Paap Mean A > B” value (P-gp) was 8.47 10^−6 cm s^−1 and the “P-gp substrate ID Caco-2 Permeability (+Verapamil) Paap Mean B > A” value (P-gp) was 7.45 10^−6 cm s^−1. For the same compound, the IC50 (human Cyp-p450 3A4; Cyp-p450 inhibition IC50, 3A4 (Midazolam)) was > 100000 nM, the IC50 (human Cyp-p450 3A4; Cyp-p450 inhibition IC50, 3A4 (Testosterone)) was ~28000 nM and 28000 nM and the F ([13]; male, CD-1, mouse) was 72%. For the same compound, the CI ([13]; male, CD-1, mouse, iv, 1 mg/kg) was 29.72 mL/min/kg, the clearance ([13]; mouse) was “less than hepatic blood flow” and the “SI90 (CC50/EC90)” value (EBOV (Mayinga) [14]) was 8.2. The EC90 (EBOV (Mayinga) [14]; Zaire ebolavirus) was 5600 nM, the “Cyp-p450 inhibition IC50, 1A2, 2B6, 2C9, 2C19” value [15] was “not an inhibitor” and the CC50 (in vitro [16]) was > 10000 nM. For the same compound, the “Ebola Zaire SI (CC50/EC50)” value (wild-type Ebola Zaire [17]) was 268.2, the fraction unbound (in vitro [18]) was 0.025 and the half-life (in vitro [19]) was 4.45 h. It also gave a Papp A→B (in vitro [20]) of 3.61 ×10⁻⁶ cm/s, a Papp B→A (in vitro [20]) of 15.6 ×10⁻⁶ cm/s and an efflux ratio (in vitro [20]) of 4.32. The fraction unbound (in vitro [21]) was 0.014, the half-life (in vitro [22]) was > 2 h and the IC50 [23] was ≥ 90000 nM. The IC50 (hERG ion channel) was > 10000 nM.
